Results taken from patent US20250090493A1, “THERAPEUTIC COMPOSITION DELIVERY DEVICE” (Helios Cardio Inc., priority 2021, published 2025).

How the values were obtained:
[1] = Amiodarone quantification in tissues by LC/MS after pericardial repair with amiodarone-soaked EBM patch, or IV amiodarone control, ovine model; type: in vivo; settings: sheep
Description: Specifically, EBM under the tradename CardiaMend™ was used. The device was approximately 1 mm thick (range 0.75-1.54 mm). An ovine model was used for a pericardial repair procedure. […] The EBM patch was then inserted through a hole cut through the pericardium via a mini-thoracotomy approach and secured with sutures at the margins of the pericardial defect. Following closure of the superficial muscle and skin, the animals were recovered, and housed until sacrifice at 3 days, 7 days, and 28 days. […] Following sacrifice, the repair site was explored, and the implant and heart were grossly evaluated for signs of inflammation, scarring, or fibrosis. Gross images were acquired.

[2] = as above; type: in vivo; settings: sheep, 1000 mg/day, Maximum IV delivery-positive control Average, 1,000 mg/day via IV for 14 days

## CCCCc1oc2ccccc2c1C(=O)c1cc(I)c(OCCN(CC)CC)c(I)c1 [Amiodarone, amiodarone]
[1]; EBM 7 cm by 10 cm soaked in 6 mL of 50 mg/mL amiodarone hydrochloride, pericardial patch, myocardium, day 3
  Amiodarone concentration, Myocardium, Day 3 Average: 63.50 µg/g
[1]; EBM drug delivery, local single dose, left atrium, day 3-7
  Amiodarone concentration, Left Atrium, EBM drug delivery Day 3-7 Average: 96 µg/g
[1]; EBM drug delivery, local single dose, liver, day 3-7
  Amiodarone concentration, Liver, EBM drug delivery Day 3-7 Average: 1 µg/g
[1]; EBM drug delivery, local single dose, lung, day 3-7
  Amiodarone concentration, Lung, EBM drug delivery Day 3-7 Average: 4 µg/g
[1]; EBM drug delivery, local single dose, right atrium, day 3-7
  Amiodarone concentration, Right Atrium, EBM drug delivery Day 3-7 Average: 83 µg/g
[1]; EBM drug delivery, local single dose, ventricles, day 3-7
  Amiodarone concentration, Ventricles, EBM drug delivery Day 3-7 Average: 14 µg/g
[1]; amiodarone-soaked EBM pericardial patch, liver, day 28
  Amiodarone concentration, Liver, Day 28 Average: below the limit of detection
[2]; left atrium
  concentration at 14 day: 19000 ng/g
[2]; liver
  concentration at 14 day: 8000 ng/g
[2]; lung
  concentration at 14 day: 27000 ng/g
[2]; right atrium
  concentration at 14 day: 33000 ng/g
[2]; ventricles
  concentration at 14 day: 9000 ng/g
